Experimental data reported in ChEMBL document CHEMBL1154828, “Dimeric guaianolides and sesquiterpenoids from Artemisia anomala” (J Nat Prod, 2010).
Calls of active or inactive are those of the source. The calls are words filed in the database; no cut-off is given here.

Experiments:
[1] = target: T1, Prostaglandin G/H synthase 2 (Homo sapiens) (UniProt P35354); assay: Inhibition of COX2 at 50 uM
T1 sequence (whole entry): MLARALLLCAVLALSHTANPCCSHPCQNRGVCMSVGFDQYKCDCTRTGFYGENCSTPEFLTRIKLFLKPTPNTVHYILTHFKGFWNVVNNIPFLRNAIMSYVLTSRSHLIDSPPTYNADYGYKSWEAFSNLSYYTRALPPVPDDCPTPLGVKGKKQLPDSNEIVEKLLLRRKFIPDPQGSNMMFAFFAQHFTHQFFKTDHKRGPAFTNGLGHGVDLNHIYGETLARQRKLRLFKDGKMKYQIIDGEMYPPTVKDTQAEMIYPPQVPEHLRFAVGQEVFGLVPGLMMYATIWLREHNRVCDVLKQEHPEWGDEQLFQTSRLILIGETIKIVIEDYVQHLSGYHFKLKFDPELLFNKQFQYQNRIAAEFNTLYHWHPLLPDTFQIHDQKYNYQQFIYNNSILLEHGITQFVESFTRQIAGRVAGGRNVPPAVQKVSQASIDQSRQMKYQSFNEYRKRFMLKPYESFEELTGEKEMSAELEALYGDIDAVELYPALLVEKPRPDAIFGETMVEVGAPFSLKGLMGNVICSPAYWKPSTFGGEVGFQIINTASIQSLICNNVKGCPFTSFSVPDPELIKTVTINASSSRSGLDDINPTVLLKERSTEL

HCT-8 = assay: Cytotoxicity activity against human HCT8 cells after 72 hrs by MTT assay; type: functional, cell-based; conditions: HCT-8, 72 h
BGC-823 = assay: Cytotoxicity activity against human BGC823 cells after 72 hrs by MTT assay; type: functional, cell-based; conditions: BGC-823, 72 h
A2780 = assay: Cytotoxicity activity against human A2780 cells after 72 hrs by MTT assay; type: functional, cell-based; conditions: A2780, 72 h
Bel-7402 = assay: Cytotoxicity activity against human Bel7402 cells after 72 hrs by MTT assay; type: functional, cell-based; conditions: Bel-7402, 72 h
A549 = assay: Cytotoxicity activity against human A549 cells after 72 hrs by MTT assay; type: functional, cell-based

| inhibition [1] [%] | Structure (SMILES) | IC50 (HCT-8) [nM] | IC50 (BGC-823) [nM] | IC50 (A2780) [nM] | IC50 (Bel-7402) [nM] | Activity (A549) |
| --- | --- | --- | --- | --- | --- | --- |
| 98.4 | C=C1C(=O)O[C@H]2[C@H]1CC[C@](C)(O)[C@]13O[C@H]1[C@H](Cl)[C@](C)(O)[C@H]23 |  |  |  |  |  |
| 99.5 | C=C1C(=O)O[C@@H]2[C@@H]3C4(C=C[C@@]3(C)C3(C4)C(=O)O[C@@H]4[C@H]5C(C)=CC(=O)C5=C(C)C[C@H](O)[C@H]43)[C@@](C)(OC(C)=O)CC[C@@H]12 (stereo partly drawn) [ARTANOMALIDE D] | 1900 | 8500 | 1800 | 3000 | inactive |
| 98.2 | C=C(C(=O)O)C(CCC(C)=O)CC1=C(C)C(=O)CC1=O (stereo not drawn) |  |  |  |  |  |
